Where two headings read alike, the source gives them in different places. Residues, ends and D or L forms follow the SMILES beside them. *: point of attachment. Cbz = O=C(OCc1ccccc1)*; CH2F = FC*
Columns and labels:
Assay type in all cases: cell-based, human
HL60 and KG-1a = experiment: Antagonists/inhibitors together with WIN-55,212-2, WST-1 viability in AML cells; settings: WIN-55,212-2 10 μM, 18 hours; for effect of CB2 antagonist on cannabinoid-induced apoptosis: HL60 and KG1-a; for effect of inhibitor on cannabinoid-induced loss of viability: WST-1
Protocol: The cell lines and primary cells were cultured in 96-well plates (5×10e5 cells per well) with the addition of the indicated concentrations of WIN 55,212-2 or PGN cannabinoids in DMSO or with the solvent only in triplicate at 18, 48, and 72 hours. Caspase inhibitor Z-VAD (OMe)-FMK or the CB2 receptor antagonist PGN-8, -37, and -70, together with the cannabinoid WIN-55,212-2, were also added. Cell viability was determined by means of the WST-1 assay [2-(4-iodophenyl)-3-(4-nitrophenyl)-5-(2,4-disulfophenyl)-2H-tetrazolium] according to the manufacturer's instructions (Dojindo Molecular Technologies). Optical densities were measured at 450 nm using a Multiskan™ Go Microplate plate reader (Thermo Fisher Scientific, Waltham, Mass., USA).

U266 and RPMI cell lines = experiment: Pretreatment with antagonists/inhibitors before WIN-55, MTT viability; settings: for effect of preincubation with CB2 antagonist on pro-apoptotic effect induced by WIN-55: 30 minutes pretreatment, then WIN-55 up to 18 hours; for effect of inhibitor on WIN-55-induced apoptosis / loss of viability: WIN-55 at suboptimal concentrations, 18 hours
Protocol: (§1) The MM cell lines and primary cells were exposed to different doses of indazole compounds, and viability was evaluated at 18, 48, and 72 hours. Pretreatments with the ceramide synthesis inhibitor (FB1), pan-caspase (ZVAD-FMK), and CB antagonists (PGN-8, PGN-37, and PGN-70) were performed for 30 minutes, and then the cells were incubated with indazole compound WIN-55 up to 18 hours. Cell viability was determined using the MTT assay Cell Counting Kit-8 (Dojindo, Kumamoto, Japan) according to the manufacturer's instructions.

myeloma cell lines = experiment: MTT cell viability assay, average over all myeloma cell lines; settings: read-out: IC50 average
Protocol: (§2) In vitro studies were carried out using six different human MM cell lines, U266, RPMI8226, MM1S, MM1R, U266-LR7, and RPMI-LR5. For ex vivo assays, human primary cells from healthy donors and MM patients were used (Table 1). Human MM cell lines U266, RPMI8226, and MM1.S were acquired from ATCC and lines U266-LR7, RPMI-LR5, and MM1.R were kindly provided by Dr. Enrique Ocio (Hospital Universitario de Salamanca, Spain). The primary cells were obtained from bone marrow (BM) aspirates or peripheral blood (PB) samples, and the peripheral blood mononuclear cells (PBMCs) were isolated by Ficoll-Hypaque centrifugation and washed twice in phosphate buffered saline (PBS) containing 1% BSA. Hematopoietic stem cells and B and T lymphocytes were isolated from healthy PB donors by positive immunomagnetic separation using human MACS CD34+, CD19+, and CD3+ microbeads, respectively. MM plasma cells were obtained from the bone marrow (BM) of patients with an infiltration of cells of more than 30% (Table 1). The MM plasma cells were identified using CD138+, and were then distinguished from the other cell populations by flow cytometry using a suitable combination of antibodies: anti-human CD64-FITC, CD34-PE, CD56-APC, CD38-APC-H7, and CD45-Pacific Blue antibodies (BD Biosciences, San Jose, Calif.). All the cell lines were cultured in RPMI-1640 supplemented with 10% fetal bovine serum (FBS) and 1% penicillin/streptomycin, as recommended by the supplier. For human primary cells, the concentration of FBS was up to 20%.
as §1

RPMI-LR5 = experiment: MTT cell viability assay, myeloma cell line RPMI-LR5; settings: read-out: IC50, cell viability
Protocol: as §2, §1

MM1R = experiment: MTT cell viability assay, myeloma cell line MM1R; settings: read-out: IC50, cell viability
Protocol: as §2, §1

RPMI8226 = experiment: MTT cell viability assay, myeloma cell line RPMI; settings: read-out: IC50, cell viability
Protocol: as §2, §1

U266 [1] = experiment: MTT cell viability assay, myeloma cell line U266; settings: read-out: IC50, cell viability
Protocol: as §2, §1

[2] = test system: lymphocytic T-cells (CD3+) and B-cells (CD19+); experiment: Viability of T and B lymphocytes from healthy donors (MTT)
Protocol: as §2, with “The MM plasma cells were identified using CD138+, and were then distinguished from the other cell populations by flow cytometry using a suitable combination of antibodies: anti-human CD64-FITC, CD34-PE, CD56-APC, CD38-APC-H7, and CD45-Pacific Blue antibodies (BD Biosciences, San Jose, Calif.). All the cell lines were cultured in RPMI-1640 supplemented with 10% fetal bovine serum (FBS) and 1% penicillin/streptomycin, as recommended by the supplier. For human primary cells, the concentration of FBS was up to 20%.” left out
The MM cell lines and primary cells were exposed to different doses of indazole compounds, and viability was evaluated at 18, 48, and 72 hours. […] Cell viability was determined using the MTT assay Cell Counting Kit-8 (Dojindo, Kumamoto, Japan) according to the manufacturer's instructions.

U266-LR7 = experiment: MTT cell viability assay, myeloma cell line U266-LR7; settings: read-out: IC50, cell viability
Protocol: as §2, §1

MM1S = experiment: MTT cell viability assay, myeloma cell line MM1S; settings: read-out: IC50, cell viability
Protocol: as §2, §1

U266 [3] = experiment: Western blot and immunofluorescence in U266 cells; settings: U266, 50 μM fumonisin B1
Protocol: The extracts for Western blot were taken after 0, 2, 6, 18, and 24 hours. The cells were lysed according to Gilbert et al., 2002. (J Immunol Methods. 2002, 271:185-201), by adding 2% ASB-14 (Calbiochem, Beeston, United Kingdom) to the isotonic lysis buffer. The protein concentration was determined by Pierce® Microplate BCA Protein Assay kit-Reducing Agent Compatible (Pierce, Rockford, Ill.). The samples were subjected to SDS/PAGE in AnykD precast gels (Bio Rad, Hercules, Calif.) and transferred to PVDF membranes using Trans-Blot® Turbo™ System (Bio-Rad). The membranes were incubated over night at 4° C. with primary antibody in 0.05% Tween 20-Tris buffered saline (TTBS) then with the suitable secondary antibody, and they were subjected to chemiluminescence detection. As a control condition, the cells were treated with DMSO (<0.15%) in RPMI 1640 medium from Gibco (Gaithersburg, Md.).
The antibodies for caspase-2, -8, -9, active caspase-3, -p-Akt (phospho T308), p-Erk (T202+Y204), -p-p38MAPK (phospho T180+Y182), -p-JNK (phospho T183+Y185), -SPT, and the CB1 and CB2 receptors were from Abcam, anti-MCL-1 and -Bcl-xL were from Santa Cruz Biotechnology, anti-PARP was from Cell Signaling Technology, anti-Bax and -Bak were from BD Biosciences. Anti-beta-tubulin was from Sigma-Aldrich. All the horseradish peroxidase (HRP)-conjugated secondary antibodies used were from Jackson ImmunoResearch and produced in a donkey to prevent the possible cross-reactivity when several tests were performed.
The cells treated for 6 hours with indazole compounds were collected and placed on a slide. Immunofluorescence staining was performed as described previously by Vielhaber et al. 2001 (Glycobiology. 2001, 11:451-7) using anti-ceramide as the primary antibody. The ceramide antibody was obtained from Sigma-Aldrich, and the Alexa-488-conjugated secondary antibody was obtained from Abcam. As a control condition, the cells were treated with DMSO (<0.15%) in RPMI 1640 medium from Gibco (Gaithersburg, Md.).

HL60 = experiment: Western blot and immunocytofluorescence in HL60 cells; settings: HL60, WIN-55,212-2 10 μM
Text: The detailed methodology for analyzing mitochondrial membrane potential (APm), Western Blot analysis, and immunocytofluorescence analysis has been described elsewhere 29

[4] = Homo sapiens, average over the six myeloma cell lines, MTT, 18 hours
[5] = Homo sapiens, RPMI-LRS, MTT, 18 hours, doses 0-50 μM
[6] = Homo sapiens, MM.1R, MM1R, MTT, 18 hours, doses 0-50 μM
[7] = Homo sapiens, RPMI-8226, RPMI, MTT, 18 hours, doses 0-50 μM
[8] = Homo sapiens, U-266, U266, MTT, 18 hours, doses 0-50 μM
[9] = Homo sapiens, U266-LR7, MTT, 18 hours, doses 0-50 μM

Question: Which “effect of CB2 antagonist on cannabinoid-induced apoptosis” value (HL60 and KG-1a) does the source give for O=[N+]([O-])c1ccc2[nH]nc(OCc3cccc4ccccc34)c2c1 [PGN-70, 3-(1-naphthylmethoxy)-5-nitro-1H-indazole] here?
Answer: significantly inhibiting cannabinoid-induced apoptosis

Question: And the “effect of preincubation with CB2 antagonist on pro-apoptotic effect induced by WIN-55” value (U266 and RPMI cell lines)?
Answer: considerably inhibited

Question: What does the source list for COc1ccc(COc2n[nH]c3ccc([N+](=O)[O-])cc23)cc1 [PGN-37, 3-(4-methoxybenzyloxy)-5-nitro-1H-indazole]?
Answer: effect of CB2 antagonist on cannabinoid-induced apoptosis (HL60 and KG-1a): significantly inhibiting cannabinoid-induced apoptosis; effect of preincubation with CB2 antagonist on pro-apoptotic effect induced by WIN-55 (U266 and RPMI cell lines): considerably inhibited

Question: What does the source list for c1ccc2c(COc3nn(CCN4CCCC4)c4ccccc34)cccc2c1 [PGN17]?
Answer: IC50 (myeloma cell lines; average over the six myeloma cell lines, MTT, 18 hours): 29.7 µM; IC50 (RPMI-LR5; RPMI-LRS, MTT, 18 hours, doses 0-50 μM): 21.7 µM; IC50 (MM1R; MM1R, MTT, 18 hours, doses 0-50 μM): 20.5 µM; IC50 (RPMI8226; RPMI, MTT, 18 hours, doses 0-50 μM): 19.9 µM; IC50 (U266 [1]; U266, MTT, 18 hours, doses 0-50 μM): 20.7 µM; viability of the lymphocytes ([2]; healthy donors, doses with antiproliferative effect on MM cell lines): did not affect the viability of the lymphocytes; IC50 (U266-LR7; U266-LR7, MTT, 18 hours, doses 0-50 μM): 51 µM; IC50 (MM1S; MM1S, MTT, 18 hours, doses 0-50 μM): 44.6 µM

Question: How did the “effect of inhibitor on cannabinoid-induced loss of viability” value (HL60 and KG-1a) turn out when CCCC[C@@H](C)[C@@H](OC(=O)C[C@@H](CC(=O)O)C(=O)O)[C@H](C[C@@H](C)C[C@H](O)CCCC[C@@H](O)C[C@H](O)[C@H](C)N)OC(=O)C[C@@H](CC(=O)O)C(=O)O [FB1, Fumonisin B1] was run?
Answer: only partially prevented

Question: What about the “effect on PARP fragmentation induced by WIN-55” value (U266 [3]) of the same compound?
Answer: considerably prevented the PARP fragmentation

Question: What about the “effect of inhibitor on WIN-55-induced apoptosis / loss of viability” value (U266 and RPMI cell lines) of the same compound?
Answer: significantly reverses the effect

Question: With c1ccc2c(COc3nn(CCN4CCCCC4)c4ccccc34)cccc2c1 [PGN6, 3-(1-naphthylmethoxy)-1-(2-piperidinoethyl)indazole] as the compound, how does the IC50 (myeloma cell lines; [4]) read?
Answer: 29.7 µM

Question: What about the IC50 (RPMI-LR5; [5]) of the same compound?
Answer: 13.7 µM

Question: And the IC50 (MM1R; [6])?
Answer: 18.6 µM

Question: And the IC50 (RPMI8226; [7])?
Answer: 14.4 µM

Question: And the IC50 (U266 [1]; [8])?
Answer: 25.4 µM

Question: What about the “viability of the lymphocytes” value [2] of the same compound?
Answer: did not affect the viability of the lymphocytes

Question: And the IC50 (U266-LR7; [9])?
Answer: 78.2 µM

Question: What does the source list for Cn1nc(OCc2cccc3ccccc23)c2cc([N+](=O)[O-])ccc21 [PGN-8, 1-methyl-3-(1-naphthylmethoxy)-5-nitroindazole]?
Answer: effect of CB2 antagonist on cannabinoid-induced apoptosis (HL60 and KG-1a): significantly inhibiting cannabinoid-induced apoptosis; effect of preincubation with CB2 antagonist on pro-apoptotic effect induced by WIN-55 (U266 and RPMI cell lines): considerably inhibited

Question: COC(=O)C[C@H](NC(=O)[C@H](C)NC(=O)[C@@H](NC(=O)OCc1ccccc1)C(C)C)C(=O)CF [Z-VAD-FMK] (Cbz-Val-Ala-Asp(OMe)-CH2F) was tested. Which “effect of inhibitor on cannabinoid-induced loss of viability” value (HL60 and KG-1a) did it give?
Answer: abolished

Question: What about the “effect of inhibitor on WIN-55-induced apoptosis / loss of viability” value (U266 and RPMI cell lines) of the same compound?
Answer: prevented the apoptosis

Question: For Nc1ccc2c(c1)c(OCc1ccc3ccccc3c1)nn2CCN1CCCCC1 [PGN34, 5-amino-3-(2-naphthylmethoxy)-1-(2-piperidinoethyl)indazole], which IC50 (myeloma cell lines; Homo sapiens, 18 h) is on record?
Answer: 20.2 µM

Question: And the IC50 (RPMI-LR5; Homo sapiens, 18 h)?
Answer: 23.2 µM

Question: And the IC50 (MM1R; Homo sapiens, MM.1R, 18 h)?
Answer: 21 µM

Question: What about the IC50 (RPMI8226; Homo sapiens, RPMI-8226, 18 h) of the same compound?
Answer: 15.4 µM

Question: What about the IC50 (U266 [1]; Homo sapiens, U-266, 18 h) of the same compound?
Answer: 26.9 µM

Question: And the IC50 (U266-LR7; Homo sapiens, 18 h)?
Answer: 17.8 µM

Question: And the IC50 (MM1S; Homo sapiens, MM1.S, 18 h)?
Answer: 17.1 µM

Question: Which IC50 (myeloma cell lines; [4]) does the source give for Nc1ccc2c(c1)c(OCc1cccc3ccccc13)nn2CCN1CCCCC1 [PGN72, 5-amino-3-(1-naphthylmethoxy)-1-(2-piperidinoethyl)indazole] here?
Answer: 25.7 µM

Question: And the IC50 (RPMI-LR5; [5])?
Answer: 41.4 µM

Question: And the IC50 (MM1R; [6])?
Answer: 26.7 µM

Question: And the IC50 (RPMI8226; [7])?
Answer: 19.6 µM

Question: What about the IC50 (U266 [1]; [8]) of the same compound?
Answer: 21.2 µM

Question: What about the IC50 (U266-LR7; [9]) of the same compound?
Answer: 20.6 µM

Question: And the IC50 (MM1S; Homo sapiens, MM1.S, MM1S, MTT, 18 hours, doses 0-50 μM)?
Answer: 24.8 µM

Question: CCCCCCC(=O)CCCCCC/C=C/C[C@@H](O)[C@H](O)[C@@](N)(CO)C(=O)O [myriocin, Myriocin] was tested. Which “effect on PARP fragmentation and Casp 3 cleavage induced by WIN-55,212-2” value (HL60) did it give?
Answer: prevented the fragmentation of PARP and the cleavage of Casp 3

Source: patent US20200281897A1, “INDAZOLE DERIVATIVES FOR CANCER TREATMENT” (Servicio Andaluz de Salud, priority 2016, published 2020)
